These results are taken from patent publication US20240018105A1, “TROPOLONE DERIVATIVES AND TAUTOMERS THEREOF FOR IRON REGULATION IN ANIMALS” (Kinesid Therapeutics, Inc., priority 2019, published 2024).

Series [1] deals with DMT1-deficient Caco-2 cells. Briefly: shDMT1-Caco2 55Fe transport assay. The series is classed as cell-based. The text has this: Assay 2: shDMT1-Caco2 ^55Fe Transport Assay to Assess Ligand Ability in Transporting Fe (III)
Cells: DMT1-deficient Caco-2 cells (alias: “shDMT1,” or “4A” cells) were from Grillo et al. Science, 2017, and were cryopreserved in liquid nitrogen prior to use.
Reagents and supplies: ^55FeCl3 was obtained from PerkinElmer (Boston, MA). Iron(III) chloride (FeCl3) hexahydrate was obtained from Sigma. Dulbecco's Modified Eagle Medium (DMEM), fetal bovine serum (FBS), L-glutamine, MEM nonessential amino acids, penicillin-streptomycin, G418, formic acid, methanol, high-purity water, ammonium formate, dimethyl sulfoxide (DMSO) were purchased from Fisher Scientific. Propranolol, atenolol and carbutamide were obtained from Sigma-Aldrich Chemical Company (St Louis, MO). Scintillation cocktail was obtained from Research Product International Co. (Mount Prospect, IL). Stericup filter system (PES membrane, 0.22 um pore size) was purchased from Fisher Scientific. Coming item #3378 24-well transwell insert plates. Test articles: known compounds hinokitiol and deferiprone were purchased from Sigma. They are tested side by side with the small molecule ligands disclosed in this application. DMSO stocks (10 mM, which is 1,000× of the 10 μM dose level) of hinokitiol or test articles were prepared. A stock solution of 25 mM deferiprone in DMSO was prepared. The DMSO stock solutions were stored at −20° C. or below when not in use.
The growth medium was prepared according to the following table
Apical media (serum free DMEM, 10 mM MES, pH 6.5) was prepared. Apical master mix media was prepared fresh with the addition of 200 nM ^55Fe before each experiment. For the negative control propranolol and atenolol wells, 200 nM of non-radioactive iron was used.
The basolateral media was serum-free DMEM, 10 mM HEPES, 2% bovine serum albumin (BSA), pH 7.4.
For each experiment, cells were seeded into the 24-well transwell plates (0.5 mL of 50,000 cells/mL) with growth media. The basolateral companion plate was loaded with 1 mL of growth media. After 12-24 hr, both the apical and basolateral chamber were replaced with growth media. The apical media was changed 3× per week for 21-28 days, including a media change exactly 48 hr before the assay date.
On the assay day, the TEER values were measured and the average TEER values was obtained. Individual wells with TEER vaule >35% lower than the average of all wells were excluded. For the qualified wells, the apical layer (twice) and basolaterial (once) chambers were washed with PBS. The basolateral companion plate was then filled with 1 mL of basolateral media. Via addition down the side-wall of the apical well, 300 μL per well of the apical assay master mix, with the indicated dose level of test article, was added. Each dose was tested in triplicate. The plates were incubated (5% CO2 and 90% humidity at 37° C.) for the indicated timepoints. At each indicated timepoint, the basolateral supernatant was gently mixed via pipetting, and 200 μL of the basolateral supernatant was transferred to scintillation vials. To each scintillation counting vial, 5 mL of scintillation cocktail fluid was added. For each scintillation vial, the radioactivity (CPM) was determined with liquid scintillation counter LS6500. The counting time per vial was 5 min.
All raw CPM values are divided by the average value of blank DMSO solution to give a fold of change above the DMSO value. The mean and standard deviation of each compound at each concentration level and at each time point measured was calculated to give the fold change (fc) value.
For rank order compounds, the fc value of a ligand at 4 h time point is further divided by the fold change (fc) value of hinokitiol (a positive control compound) at an equimolar concentration to arrive at the FC (normalized fold of change) value. Data reported in Tables 1 and 2 is 4 hr time point FC=fc-ligand @ 3 uM/fc-hino @ 3 uM, and FC hino=1.
Background: Passage across Caco-2 layers is used to estimate intestinal permeability.

Series [2] in a line: Mouse liver microsomal stability assay. The series is classed as in vitro ADME. The text has this: (§1) Compounds of the present disclosure were further evaluated in standard in vitro and in vivo Absorption, Distribution, Metabolism, Excretion (ADME) and Drug Metabolism and Pharmacokinetics (DMPK) assays to assess drug profiles important for further drug development.
(§2) Such assessments included human and mouse liver microsomal stability assays as well as 6-hour mouse PK studies.

The nature of series [3]: Human liver microsomal stability assay. The series is classed as in vitro ADME.
From the text: as §1, §2
A general note: Liver microsomes are vesicles of endoplasmic reticulum, rich in cytochrome P450 enzymes.

A short description of series [4]: Ligand facilitated Fe(III) efflux from liposomes. To be noted: 10 uM ligand concentration. The gist of the method:
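POPC:cholesterol liposomes loaded with Fe(III)-citrate (pH 7.0), used at 1 mM phosphorus with 1 mM ferrozine outside. Ligand at 40–1.25 μM final, in triplicate; absorbance at 562 nm read every 60 s for 120 min. Efflux rate k from single-phase association fit, averaged over triplicates.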

Series [5] in a line: Mouse 6-hour PK study. As to conditions: in vivo.
From the text: as §1, §2

In general, AUC(0-t) refers to the area under the concentration-time curve up to a stated or last time point. Usually Cmax stands for the peak of the concentration-time curve. For the compound `O=c1cccc(-c2cncc(F)c2)cc1O` [Ex.1, 4-(5-fluoropyridin-3-yl)-2-hydroxycyclohepta-2,4,6-trien-1-one], the “Caco2 shDMT1 transport FC @ 3 μM, 4h” value in series [1] (Caco-2) was 0.01-0.5. In series [2] (mouse, microsomes), this compound returned a half-life of more than 2 h and a microsomal CLint of less than 11.6 µL/min/mg. For the same compound, in series [3] (human, microsomes), the half-life is more than 2 h and the microsomal CLint is less than 11.6 µL/min/mg. For the same compound, the “Liposome Fe transport kefflux at 10 10 μM” value in series [4] (Table 1) is listed as 5-7.5. In series [5], the AUC(0-t) fell in the range of 5000 to 20000 ng·h/mL, the maximum concentration (Cmax) lay in the range of 5000 to 20000 ng/mL, the half-life was less than 1.25 h and the “mouse 6-hour PK properties compared to hinokitiol” value is listed as “one or more improved mouse 6-hour PK properties compared to hinokitiol”.
Regarding `O=c1cccc(-c2ccc(F)cn2)cc1O` [Ex.3, 4-(5-fluoropyridin-2-yl)-2-hydroxycyclohepta-2,4,6-trien-1-one], the “Caco2 shDMT1 transport FC @ 3 μM, 4h” value in series [1] (Caco-2) is 0.01-0.5. In series [2] (mouse, microsomes), this compound registered a half-life of more than 2 h and a microsomal CLint of less than 11.6 µL/min/mg. Moreover, in series [3] (human, microsomes), the half-life is more than 2 h and the microsomal CLint was less than 11.6 µL/min/mg. For the same compound, in series [4] (Table 1), the “Liposome Fe transport kefflux at 10 10 μM” value is 5-7.5. In series [5], the AUC(0-t) lay in the range of 5000 to 20000 ng·h/mL, the Cmax was in the range of 1500 to 5000 ng/mL, the half-life was in the range of 1.25 to 4.99 h and the “mouse 6-hour PK properties compared to hinokitiol” value is “one or more improved mouse 6-hour PK properties compared to hinokitiol”.
Take `Cc1ccc(-c2cncc(F)c2)cc(O)c1=O` [Ex.16, 4-(5-fluoropyridin-3-yl)-2-hydroxy-7-methylcyclohepta-2,4,6-trien-1-one]: in series [1] (Caco-2), the “Caco2 shDMT1 transport FC @ 3 μM, 4h” value is given as 0.5-1. Also, in series [2] (mouse, microsomes), the half-life came out at 1.38 h and the microsomal CLint came out at 16.7 µL/min/mg. Further, in series [3] (human, microsomes), the half-life was more than 2 h and the microsomal CLint was less than 11.6 µL/min/mg. Moreover, in series [4] (Table 1), the “Liposome Fe transport kefflux at 10 10 μM” value was 10-25. In addition, in series [5], the AUC(0-t) was more than 20000 ng·h/mL, the Cmax was in the range of 5000 to 20000 ng/mL, the half-life was in the range of 1.25 to 4.99 h and the “mouse 6-hour PK properties compared to hinokitiol” value was “one or more improved mouse 6-hour PK properties compared to hinokitiol”.
As for `Cc1c(F)cncc1-c1ccc([O-])c(=O)cc1.[Na+]` [Ex.23, sodium 4-(5-fluoro-4-methylpyridin-3-yl)-7-oxocyclohepta-1,3,5-trien-1-olate], in series [1] (Caco-2), the “Caco2 shDMT1 transport FC @ 3 μM, 4h” value is listed as 0.01-0.5. In series [2] (mouse, microsomes), this compound yielded a half-life of more than 2 h and a microsomal CLint of less than 11.6 µL/min/mg. In series [3] (human, microsomes), this compound had a half-life of more than 2 h and a microsomal CLint of less than 11.6 µL/min/mg. The “Liposome Fe transport kefflux at 10 10 μM” value in series [4] (Table 1) was 10-25. In addition, in series [5], the AUC(0-t) was more than 20000 ng·h/mL, the Cmax is 5000 to 20000 ng/mL, the half-life lay within 1.25 to 4.99 h and the “mouse 6-hour PK properties compared to hinokitiol” value is on record as “one or more improved mouse 6-hour PK properties compared to hinokitiol”.
Turning to `O=c1ccccc(-c2ccc(F)cn2)c1O` [Ex.26, 3-(5-fluoropyridin-2-yl)-2-hydroxycyclohepta-2,4,6-trien-1-one], the “Caco2 shDMT1 transport FC @ 3 μM, 4h” value in series [1] (Caco-2) is 0.01-0.5. In series [2] (mouse, microsomes), this compound showed a half-life of more than 2.5 h and a microsomal CLint of less than 25 µL/min/mg. In series [3] (human, microsomes), this compound gave a half-life of more than 2.5 h and a microsomal CLint of less than 25 µL/min/mg. Further, the “clearence half-life (t1/2) and/or intrinsic clearence (CLint) compared to hinokitiol” value in series [3] (microsomes) is “longer clearence half-life (t1/2) and/or lower intrinsic clearence (CLint) than hinokitiol”. Also, in series [4] (Table 1), the “Liposome Fe transport kefflux at 10 10 μM” value is 10-25. Besides, in series [5], the AUC(0-t) was in the range of 1500 to 5000 ng·h/mL, the Cmax lay in the range of 1500 to 5000 ng/mL, the half-life lay in the range of 1.25 to 4.99 h and the “mouse 6-hour PK properties compared to hinokitiol” value is recorded as “one or more improved mouse 6-hour PK properties compared to hinokitiol”.
With `Cc1ncc(-c2cccc(=O)c(O)c2)cn1` [Ex.31, 2-hydroxy-4-(2-methylpyrimidin-5-yl)cyclohepta-2,4,6-trien-1-one], in series [1] (Caco-2), the “Caco2 shDMT1 transport FC @ 3 μM, 4h” value is listed as 0.01-0.5. In series [2] (mouse, microsomes), this compound came in with a half-life of more than 2 h and a microsomal CLint of less than 11.6 µL/min/mg. In series [3] (human, microsomes), this compound returned a half-life of more than 2 h and a microsomal CLint of less than 11.6 µL/min/mg. Besides, the “Liposome Fe transport kefflux at 10 10 μM” value in series [4] (Table 1) is on record as 0.1-5. Further, in series [5], the AUC(0-t) was in the range of 1500 to 5000 ng·h/mL, the Cmax lay in the range of 1500 to 5000 ng/mL, the half-life is 1.25 to 4.99 h and the “mouse 6-hour PK properties compared to hinokitiol” value is reported as “one or more improved mouse 6-hour PK properties compared to hinokitiol”.
In the case of `Cc1ncc(-c2cccc(=O)c(O)c2)c(C)n1` [Ex.32, 4-(2,4-dimethylpyrimidin-5-yl)-2-hydroxycyclohepta-2,4,6-trien-1-one], the “Caco2 shDMT1 transport FC @ 3 μM, 4h” value in series [1] (Caco-2) is on record as 0.01-0.5. In series [2] (mouse, microsomes), this compound showed a half-life of more than 2 h and a microsomal CLint of less than 11.6 µL/min/mg. In series [3] (human, microsomes), this compound came in with a half-life of more than 2 h and a microsomal CLint of less than 11.6 µL/min/mg. In addition, the “Liposome Fe transport kefflux at 10 10 μM” value in series [4] (Table 1) is on record as 5-7.5. Further, in series [5], the AUC(0-t) is 5000 to 20000 ng·h/mL, the Cmax was in the range of 1500 to 5000 ng/mL, the half-life is 1.25 to 4.99 h and the “mouse 6-hour PK properties compared to hinokitiol” value is “one or more improved mouse 6-hour PK properties compared to hinokitiol”.
As for `O=c1ccccc(Oc2ccc(F)cc2F)c1O` [Ex.67, 3-(2,4-difluorophenoxy)-2-hydroxycyclohepta-2,4,6-trien-1-one], in series [1] (Caco-2), the “Caco2 shDMT1 transport FC @ 3 μM, 4h” value was 0.01-0.5. In series [4] (Table 2), the “Liposome Fe transport Kefflux at 10 μM” value was less than 0.1. Moreover, in series [5], the AUC(0-t) fell in the range of 1500 to 5000 ng·h/mL, the Cmax is 1500 to 5000 ng/mL, the half-life was in the range of 1.25 to 4.99 h and the “mouse 6-hour PK properties compared to hinokitiol” value is “one or more improved mouse 6-hour PK properties compared to hinokitiol”.
`O=c1ccccc(-c2cscn2)c1O` [Ex.76, 2-hydroxy-3-(thiazol-4-yl)cyclohepta-2,4,6-trien-1-one]: the “Caco2 shDMT1 transport FC @ 3 μM, 4h” value in series [1] (Caco-2) is given as 0.5-1. In series [5], the area under the curve AUC(0-t) lay within 500 to 1500 ng·h/mL, the Cmax is 1500 to 5000 ng/mL, the half-life was less than 1.25 h and the “mouse 6-hour PK properties compared to hinokitiol” value is on record as “one or more improved mouse 6-hour PK properties compared to hinokitiol”.
On to `Cc1c(O)c(=O)ccn1C` [deferiprone, reference compound], for which, in series [1] (Caco-2), the “Caco2 shDMT1 transport FC @ 3 μM, 4h” value is given as 0.02-0.03. The “Liposome Fe transport Kefflux at 10 μM” value in series [4] (Table 1) amounted to 0.
Consider `CC(C)c1cccc(=O)c(O)c1` [hinokitiol, reference compound], for which the “Caco2 shDMT1 transport FC @ 3 μM, 4h” value is recorded as 1 in series [1] (3 μM, 4 h, fold change normalized to hinokitiol (FC hino=1), Table 1) and 1.00 in series [1] (3 μM, 4 h, fold change normalized to hinokitiol (FC hino=1), Table 2). Further, the microsomal CLint in series [2] (mouse liver microsomes, Table 4, read-out: Mouse CLint) was 43.4 µL/min/mg; in series [3] (human liver microsomes, Table 4, read-out: Human CLint), 150 µL/min/mg. In addition, the half-life in series [2] (mouse liver microsomes, Table 4, read-out: Mouse t1/2) came out at 0.533 h; in series [3] (human liver microsomes, Table 4, read-out: Human t1/2), 0.153 h. Further, the “Liposome Fe transport Kefflux at 10 μM” value in series [4] (Table 1) and in series [4] (Table 2) was 7.77 throughout.
